Our source for the IC50 values is US9765056B2, “Indole and pyrrole compounds, a process for their preparation and pharmaceutical compositions containing them” (LES LABORATOIRES SERVIER, priority 2013, dated 2017).

Assay [1] relates to RS4;11 leukaemia tumour line. Nature of the assay: In vitro cytotoxicity, Microculture Tetrazolium Assay (MTT). In kind it is cell-based. As to conditions: Homo sapiens; RS4;11 cells, 48 hours exposure. The method, then:
The cytotoxicity studies were carried out on the RS4;11 leukaemia tumour line.
The cells are distributed onto microplates and exposed to the test compounds for 48 hours. The cell viability is then quantified by a colorimetric assay, the Microculture Tetrazolium Assay (Cancer Res., 1987, 47, 939-942).

In assay [2] the target is Bcl-2 protein (histag-Bcl-2, UniProtKB P10415) (Homo sapiens (Human), UniProt P10415). Description: Inhibition of Bcl-2 by the fluorescence polarisation technique. In kind it is binding. As to conditions: fluorescence polarisation test; method A, or method B where underlined (underlining not visible); read-out: IC50 (nM) Bcl-2 FP. An excerpt: Inhibition of Bcl-2 by the fluorescence polarisation technique
Sequence of Bcl-2 protein (P10415 whole entry): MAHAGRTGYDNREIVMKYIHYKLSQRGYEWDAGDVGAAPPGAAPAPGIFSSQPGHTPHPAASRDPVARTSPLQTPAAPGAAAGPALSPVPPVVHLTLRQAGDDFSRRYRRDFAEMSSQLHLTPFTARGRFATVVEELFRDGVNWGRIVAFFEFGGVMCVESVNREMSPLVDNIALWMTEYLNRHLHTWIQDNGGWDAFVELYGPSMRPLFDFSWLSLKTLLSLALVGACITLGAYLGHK
Background: Fluorescence polarisation rises when a labelled molecule tumbles more slowly, as on binding a larger partner.

Where a name gives a salt, the structure may show the parent alone.

Consider `CN1CCN(C[C@@H]2Cc3ccccc3CN2C(=O)c2cc3c(cc2-n2cc(C(=O)N(c4ccc(O)cc4)c4ccc5[nH]ccc5c4)c4ccccc42)OCO3)CC1` [Example 37, N-(4-Hydroxyphenyl)-N-(1H-indol-5-yl)-1-(6-{[(3S)-3-[(4-methylpiperazin-1-yl)methyl]-3,4-dihydroisoquinolin-2(1H)-yl]carbonyl}-1,3-benzodioxol-5-yl)-1H-indole-3-carboxamide], for which the IC50 – broadly, the concentration that gives 50% inhibition – came to 47.1 nM in assay [1] and 3.8 nM in assay [2].
For `Cc1cc(C(=O)N(c2ccccc2)c2ccc(O)cc2)cn1-c1cc(Br)ccc1C(=O)N1Cc2ccccc2C[C@H]1CN1C[C@H]2CCC[C@H]2C1` [Example 38, 1-(5-Bromo-2-{[(3S)-3-[(3aR,6aS)-hexahydrocyclopenta[c]pyrrol-2(1H)-ylmethyl]-3,4-dihydroisoquinolin-2(1H)-yl]carbonyl}phenyl)-N-(4-hydroxyphenyl)-5-methyl-N-phenyl-1H-pyrrole-3-carboxamide], in that order: 1780 nM and 238 nM.
For `CN1CCN(C[C@@H]2Cc3ccccc3CN2C(=O)c2cc3c(cc2-n2cc(C(=O)N(c4ccc(O)cc4)c4cccc(Oc5ccccc5)c4)c4ccccc42)OCO3)CC1` [Example 39, N-(4-Hydroxyphenyl)-1-(6-{[(3S)-3-[(4-methylpiperazin-1-yl)methyl]-3,4-dihydroisoquinolin-2(1H)-yl]carbonyl}-1,3-benzodioxol-5-yl)-N-(3-phenoxyphenyl)-1H-indole-3-carboxamide hydrochloride], in that order: 263 nM and 12.5 nM.
Turning to `CN1CCN(C[C@@H]2Cc3ccccc3CN2C(=O)c2cc3c(cc2-n2cc(C(=O)N(CCc4ccccc4)c4ccc(O)cc4)c4ccccc42)OCO3)CC1` [Example 40, N-(4-Hydroxyphenyl)-1-(6-{[(3S)-3-[(4-methylpiperazin-1-yl)methyl]-3,4-dihydroisoquinolin-2(1H)-yl]carbonyl}-1,3-benzodioxol-5-yl)-N-(2-phenylethyl)-1H-indole-3-carboxamide], the results for the IC50 in assay [1] and in assay [2] were 167 nM and 7.8 nM, respectively.
For `CN1CCN(C[C@@H]2Cc3ccccc3CN2C(=O)c2cc3c(cc2-n2cc(C(=O)N(c4ccc(O)cc4)c4ccc(O)cc4)c4ccccc42)OCO3)CC1` [Example 41, N,N-bis(4-Hydroxyphenyl)-1-(6-{[(3S)-3-[(4-methylpiperazin-1-yl)-methyl]-3,4-dihydroisoquinolin-2(1H)-yl]carbonyl}-1,3-benzodioxol-5-yl)-1H-indole-3-carboxamide], in that order: 52.2 nM and 3.7 nM.
The like results for `Cc1cc(C(=O)N(c2ccccc2)c2ccc(O)cc2)cn1-c1cc(Br)ccc1C(=O)N1Cc2ccccc2C[C@H]1CN1CCOCC1` [Example 42, 1-(5-Bromo-2-{[(3S)-3-(morpholin-4-ylmethyl)-3,4-dihydroisoquinolin-2(1H)-yl]carbonyl}phenyl)-N-(4-hydroxyphenyl)-5-methyl-N-phenyl-1H-pyrrole-3-carboxamide] were, in that order, 353 nM and 23.1 nM.
On to `CN1CCN(C[C@@H]2Cc3ccccc3CN2C(=O)c2cc3c(cc2-n2cc(C(=O)N(c4ccc(O)cc4)c4ccc5sccc5c4)c4ccccc42)OCO3)CC1` [Example 43, N-(1-Benzothiophen-5-yl)-N-(4-hydroxyphenyl)-1-(6-{[(3S)-3-[(4-methylpiperazin-1-yl)methyl]-3,4-dihydroisoquinolin-2(1H)-yl]carbonyl}-1,3-benzodioxol-5-yl)-1H-indole-3-carboxamide], for which the half-inhibitory concentration (IC50) in assay [1] stood at 101 nM; in assay [2], 7.2 nM.
The like results for `CN1CCN(C[C@@H]2Cc3ccccc3CN2C(=O)c2cc3c(cc2-n2cc(C(=O)N(c4ccc(O)cc4)c4ccc5occc5c4)c4ccccc42)OCO3)CC1` [Example 44, N-(1-Benzofuran-5-yl)-N-(4-hydroxyphenyl)-1-(6-{[(3S)-3-[(4-methylpiperazin-1-yl)methyl]-3,4-dihydroisoquinolin-2(1H)-yl]carbonyl}-1,3-benzodioxol-5-yl)-1H-indole-3-carboxamide] were, in that order, 164 nM and 6.8 nM.
The like results for `CN1CCN(C[C@@H]2Cc3ccccc3CN2C(=O)c2cc3c(cc2-n2cc(C(=O)N(c4ccc(O)cc4)c4ccc5c(ccn5C)c4)c4ccccc42)OCO3)CC1` [Example 45, N-(4-Hydroxyphenyl)-N-(1-methyl-1H-indol-5-yl)-1-(6-{[(3S)-3-[(4-methylpiperazin-1-yl)methyl]-3,4-dihydroisoquinolin-2(1H)-yl]carbonyl}-1,3-benzodioxol-5-yl)-1H-indole-3-carboxamide] were, in that order, 36.5 nM and 6.7 nM.
The like results for `Cc1cc(C(=O)N(c2ccc(O)cc2)c2ccc3[nH]ccc3c2)cn1-c1cc(Br)ccc1C(=O)N1Cc2ccccc2C[C@H]1CN1CCN(C)CC1` [Example 46, 1-(5-Bromo-2-{[(3S)-3-[(4-methylpiperazin-1-yl)methyl]-3,4-dihydroisoquinolin-2(1H)-yl]carbonyl}phenyl)-N-(4-hydroxyphenyl)-N-(1H-indol-5-yl)-5-methyl-1H-pyrrole-3-carboxamide] were, in that order, 93.4 nM and 8.4 nM.
For `CN1CCN(C[C@@H]2Cc3ccccc3CN2C(=O)c2cc3c(cc2-n2cc(C(=O)N(c4ccc(O)cc4)c4ccc5c(c4)CCN5)c4ccccc42)OCO3)CC1` [Example 47, N-(2,3-Dihydro-1H-indol-5-yl)-N-(4-hydroxyphenyl)-1-(6-{[(3S)-3-[(4-methylpiperazin-1-yl)methyl]-3,4-dihydroisoquinolin-2(1H)-yl]carbonyl}-1,3-benzodioxol-5-yl)-1H-indole-3-carboxamide], the IC50 came to 50.3 nM in assay [1] and 9.2 nM in assay [2].
For `CN1CCN(C[C@@H]2Cc3ccccc3CN2C(=O)c2ccc(Br)cc2-n2cc(C(=O)N(c3ccc(O)cc3)c3ccc4[nH]ccc4c3)c3ccccc32)CC1` [Example 48, 1-(5-Bromo-2-{[(3S)-3-[(4-methylpiperazin-1-yl)methyl]-3,4-dihydroisoquinolin-2(1H)-yl]carbonyl}phenyl)-N-(4-hydroxyphenyl)-N-(1H-indol-5-yl)-1H-indole-3-carboxamide], in that order: 93.9 nM and 10.5 nM.
Consider `COc1ccc(N(C(=O)c2cn(-c3cc4c(cc3C(=O)N3Cc5ccccc5C[C@H]3CN3CCN(C)CC3)OCO4)c3ccccc23)c2ccc(O)cc2)cc1` [Example 49, N-(4-Hydroxyphenyl)-N-(4-methoxyphenyl)-1-(6-{[(3S)-3-[(4-methylpiperazin-1-yl)methyl]-3,4-dihydroisoquinolin-2(1H)-yl]carbonyl}-1,3-benzodioxol-5-yl)-1H-indole-3-carboxamide], for which the IC50 in assay [1] came out at 136 nM; in assay [2] it was 13.1 nM.
For `Cc1cc(C(=O)N(c2ccc(O)cc2)c2ccc(F)cc2)cn1-c1cc(Br)ccc1C(=O)N1Cc2ccccc2C[C@H]1CN1CCN(C)CC1` [Example 50, 1-(5-Bromo-2-{[(3S)-3-[(4-methylpiperazin-1-yl)methyl]-3,4-dihydroisoquinolin-2(1H)-yl]carbonyl}phenyl)-N-(4-fluorophenyl)-N-(4-hydroxyphenyl)-5-methyl-1H-pyrrole-3-carboxamide], in that order: 301 nM and 7.4 nM.
For `CN1CCN(C[C@@H]2Cc3ccccc3CN2C(=O)c2cc3c(cc2-n2cc(C(=O)N(c4ccc(O)cc4)c4ccc(OC(F)(F)F)cc4)c4ccccc42)OCO3)CC1` [Example 51, N-(4-Hydroxyphenyl)-1-(6-{[(3S)-3-[(4-methylpiperazin-1-yl)methyl]-3,4-dihydroisoquinolin-2(1H)-yl]carbonyl}-1,3-benzodioxol-5-yl)-N-[4-(trifluoro-methoxy)phenyl]-1H-indole-3-carboxamide], in that order: 155 nM and 6.9 nM.
The like results for `Cc1ccc(N(C(=O)c2cn(-c3cc4c(cc3C(=O)N3Cc5ccccc5C[C@H]3CN3CCN(C)CC3)OCO4)c3ccccc23)c2ccc(O)cc2)cc1F` [Example 52, N-(3-Fluoro-4-methylphenyl)-N-(4-hydroxyphenyl)-1-(6-{[(3S)-3-[(4-methylpiperazin-1-yl)methyl]-3,4-dihydroisoquinolin-2(1H)-yl]carbonyl}-1,3-benzodioxol-5-yl)-1H-indole-3-carboxamide] were, in that order, 77.3 nM and 5.4 nM.
`Cc1ccc(N(C(=O)c2cc(C)n(-c3cc(Br)ccc3C(=O)N3Cc4ccccc4C[C@H]3CN3CCN(C)CC3)c2)c2ccc(O)cc2)cc1` [Example 53, 1-(5-Bromo-2-{[(3S)-3-[(4-methylpiperazin-1-yl)methyl]-3,4-dihydroisoquinolin-2(1H)-yl]carbonyl}phenyl)-N-(4-hydroxyphenyl)-5-methyl-N-(4-methylphenyl)-1H-pyrrole-3-carboxamide]: the IC50 in assay [1] was determined as 207 nM; in assay [2], 9 nM.
For `CN1CCN(C[C@@H]2Cc3ccccc3CN2C(=O)c2ccc(Br)cc2-n2cc(C(=O)N(c3ccc(O)cc3)c3ccc(O)cc3)c3ccccc32)CC1` [Example 54, 1-(5-Bromo-2-{[(3S)-3-[(4-methylpiperazin-1-yl)methyl]-3,4-dihydroisoquinolin-2(1H)-yl]carbonyl}phenyl)-N,N-bis(4-hydroxyphenyl)-1H-indole-3-carboxamide], in that order: 103 nM and 20 nM.
For `Cc1ccc(N(C(=O)c2cn(-c3cc4c(cc3C(=O)N3Cc5ccccc5C[C@H]3CN3CCN(C)CC3)OCO4)c3ccccc23)c2ccc3[nH]ccc3c2)cc1` [Example 55, N-(1H-Indol-5-yl)-N-(4-methylphenyl)-1-(6-{[(3S)-3-[(4-methylpiperazin-1-yl)methyl]-3,4-dihydroisoquinolin-2(1H)-yl]carbonyl}-1,3-benzodioxol-5-yl)-1H-indole-3-carboxamide], in that order: 1020 nM and 57.2 nM.
